Here are results for one compound from US10478431B2, “Methods for treating a cytomegalovirus infection” (priority 2014, dated 2019).

One experiment deals with Rhesus CMV (RhCMV). In words: Rhesus CMV viral replication kinetics on rhesus fibroblast cells. Format: cell-based, rhesus monkey. On the procedure:
Murine CMV (MCMV) replication kinetics were performed in BALB/c mice using the Smith strain of MCMV as previously described (Orr et al., 2010) and on NIH 3T3 cells using same methods as for HCMV. Rhesus CMV (RhCMV) viral replication kinetics were performed on rhesus fibroblast cells as described in (Lilja et al., 2008).

For experiment [1], the system named is clinically derived CMV isolate TB40E. Nature of the experiment: HCMV TB40E virus replication and spread on epithelial cell monolayers. Format: cell-based, human CMV (hCMV). The note with it: FIG. 22. The source says: (Cells show more CPE with drug treatment and appear more distorted and larger.) Infection at MOI of 1 on confluent epithelial cell monolayers. Images on day 5, post infection.

In experiment [2] the test system is DNA CRS target with purified IE2 protein. Nature of the experiment: Gel shift assay (EMSA) of IE2-CRS. The class given is binding. The note with it: various amounts of BB33258; FIG. 20. The procedure: IE2-MBP expressed in BL21 cells was purified using amylose column, and EMSA was performed for IE2-crs interaction as described in Macias, M. P., Stinski, M. F., 1993. PNAS. 90, 707-711.

For experiment [3], the system named is CMV AD169 (a laboratory strain of HCMV). In words: Human CMV viral replication kinetics in MRCS cells (TCID50, PFU/ml). Format: cell-based, human CMV (hCMV). On the procedure:
MRCS cells were seeded into cell culture plates and maintained for 1 to 2 days until cells reached confluency at ˜5×10^4 cells per well. The monolayers were then infected with recombinant virus human CMV IE2-YFP or CMV-GFP as a control. HCMV IE2-YFP was used as the control virus for replication kinetics with the Δcrs IE2-YFP recombinant virus. Cells were infected at a multiplicity of infection (MOI) of 1, 0.2, or 0.1, as indicated. Inoculum was prepared using virus stocks diluted in culture media, and adsorbed onto cells in a volume of 200 μl for one hour at 37° C. in a humidified CO2 incubator. Inoculum was then removed and replaced with one mL of fresh media. The amount of infectious virus to prepare inoculum was based on plaque assay titrations (Bolovan-Fritts and Wiedeman, 2001) of virus stocks and is shown as time point 0 in each figure. For each time point three separate sample wells were collected. Infectious cell-free virus was collected by harvesting medium from infected culture wells at indicated time points and stored at −80° C. To measure replication, samples were thawed and prepared as a 10-fold serial dilution series in culture media, then analyzed by TCID50. The results were then converted to plaque-forming units per ml (PFU/ml). Error ranges were calculated using standard deviation.

The subject of another experiment is mCMV CRS sequence. Nature of the experiment: bisBenzimide binding assay (fluorescence), mCMV CRS saturation curve. The note with it: BB33258 titrated from 10 μM to 1 nM; FIG. 18. The procedure: Serial dilutions for each CRS sequence were prepared. Each CRS sequence was held constant at 10 μM while BB33258 was titrated from 10 μM to 1 nM. All assays were performed at room temperature (˜25° C. in DPBS). Serial dilutions were pipetted into 96-well glass bottom plate and allowed to equilibrate for 3 hours at room temperature in the dark. Plates were then assayed for fluorescence intensity using Perkin-Elmer EnSpyre multimode plate reader. Scans from 370 nm to 580 nm for each sequence were obtained. Dilution concentrations and BB33258 combinations that saturated the PMT were excluded.

Experiment [4] deals with IE2 negative feedback (MIEP-IE2-IRES-GFP construct, LM2ig). Nature of the experiment: IE2 negative feedback reporter: cells harboring LM2ig (MIEP-IE2-IRES-GFP), GFP by flow cytometry. The class given is cell-based, human CMV (hCMV). The procedure: MRCS fibroblasts and life-extended human foreskin fibroblasts (HFFs) (Bresnahan and Shenk, 2000) were maintained in Dulbecco's Modified Eagle's Medium (DMEM) supplemented with 10% fetal bovine serum (FBS) and 50 U/ml penicillin-streptomycin at 37° C. and 5% CO2 in a humidified incubator. ARPE-19 cells were maintained in a 1:1 mixture of DMEM/F-12 (Mediatech Inc.) with 10% FBS (HyClone) and 50 U/ml Penicillin-Streptomycin (Mediatech Inc.). Cells were treated with a final concentration of 1 mM valproic acid (VPA) (Calbiochem™), resuspended in dimethylsulfoxide, for approximately 24 hours before imaging. Cells were treated with a final concentration of 400 nM TSA (Sigma-Aldrich) resuspended in dimethylsulfoxide, for 20-24 hours, a final concentration of 10 ng/mL TNF-α (Sigma-Aldrich) resuspended in phosphate-buffered saline (PBS), or a final concentration of 1 mM VPA (Calbiochem) for approximately 24 hours before imaging.
Standard lentiviral cloning was used to create minimal major immediate early (MIE) circuits (Dull et al., 1998). The minimal MIEP-IE2-GFP and MIEP-GFP circuits are driven by a full-length ˜2.5 kb MIE promoter-enhancer (MIEP) that spans the sequence from the MIEP modulator at the 5′ edge to the junction of immediate early (IE) exons 1 and 2. The MIEP was polymerase chain reaction (PCR)-cloned from AD169 into pLEIGW in place of the EF1a promoter. This full-length MIEP drives an IE2-IRES-GFP or mCherry-IRES-GFP cassette. IE2 was cloned from pRSV-IE86 (a gift from Jay Nelson). ARPE-19 cells were infected and fluorescence-activated cell sorter (FACS) sorted for green fluorescent protein (GFP) fluorescence to create stably expressing cell lines. Cells were treated with Trichostatin-A (TSA) for 17 hours, and GFP expression was quantified by flow cytometry. Live cells were gated by forward-versus-side scattering on a FacsCalibur™ cytometer (BD Biosciences) and mean fluorescence intensity recorded. At least 20,000 live cells were recorded for each experiment and data was analyzed in FlowJo™ (Treestar Inc.).
See WO 2014/127148 for descriptions of MIEP-IE2-reporter constructs. For example, LM2ig construct is depicted in FIG. 7 of WO 2014/127148.

Molecules are shown by their SMILES. “Also recorded” adds a separate entry of the source. Counter-ions that a name gives are not always drawn.

In the case of `CN1CCN(c2ccc3[nH]c(-c4ccc5[nH]c(-c6ccc(O)cc6)nc5c4)nc3c2)CC1` [Hoechst 33258, 2′-(4-hydroxyphenyl)-5-(4-methyl-1-piperazinyl)-2,5′-bi-1H-benzimidazole trihydrochloride hydrate], the “cytopathic effect (CPE) and plaque formation” value in the experiment with Rhesus CMV (RhCMV) (DIC imaging, rhCMV-infected cells) is “reduced cytopathic effect (CPE) and plaque formation”. For the same compound, the rhCMV replication result in the experiment with Rhesus CMV (RhCMV) (FIG. 11) was “inhibited rhCMV replication to an extent similar to Hoechst 33258 inhibition of hCMV replication”. In addition, in the experiment on Rhesus CMV (RhCMV) (FIG. 12), the “inhibitory effect on rhCMV replication at various MOI and after multiple rounds of replication” value is “remains both at high MOI and also after multiple rounds of replication”. In experiment [1] (MOI of 1, confluent epithelial cell monolayers), the “virus fitness (TB40E replication levels)” value was “virus fitness loss”. The “cell to cell spread (IE2-YFP positive cells)” value in experiment [1] (MOI of 1, images on day 5 post infection) is reported as “inhibits cell to cell spread”. The “binding to the CRS sequence (EMSA)” value in experiment [2] is “binding”. In experiment [3] (FIG. 10), the “reduction of hCMV replication” value is listed as “more than 100 fold”. The HCMV viral replication result in experiment [3] (MRCS cells, CMV AD169, 5, 10 or 20 μM Hoechst 33258, data in PFU/ml, FIG. 3, trihydrochloride hydrate) is reported as “inhibited HCMV viral replication; also recorded: significantly reduced HCMV replication”. Also, the “saturation of binding to mCMV CRS” value in the experiment with mCMV CRS sequence was “did not saturate within the range of concentrations tested”. Further, the “breaking of the IE2 negative feedback circuit” value in experiment [4] (24-28 hour exposure) is “breaks the IE2 negative feedback circuit”. Further, the “quiescent MIEP-driven expression in a reporter cell line” value in experiment [4] (ARPE-19 cells harboring LM2ig, 20 μM Hoechst 33258, FACS, FIG. 4 upper panel) is reported as “activated quiescent MIEP-driven expression”. In experiment [4] (ARPE-19 cells harboring LM2ig, Hoechst 33258 with or without VPA, FIG. 7), the “number of GFP-positive cells” value is reported as “induced an increase”. The “mean fluorescence intensity (MFI)” value in experiment [4] (ARPE-19 cells harboring LM2ig, Hoechst 33258 with or without VPA, FIG. 8) is given as “increased MFI”. For the same compound, in experiment [4] (ARPE-19 cells stably transduced with LM2ig, FIG. 1, FIG. 2), the “production of IE2, as measured by GFP expression (GFP mean fluorescence intensity; GFP-MFI)” value is recorded as “increased production of IE2”. For the same compound, the “reactivation of the LM2ig minimal circuit” value in experiment [4] (Hoechst 33258: after 24 hours) is “strongly reactivates”. The “breaking of the circuit and reactivation of the promoter from an off (silenced) state” value in experiment [4] (long-term (e.g., 8-10 days) exposure) was “breaks the circuit and reactivates the promoter”.
